# According to patent publication US20140094424A1, “MICROBICIDAL COMPOSITIONS AND METHODS OF PRODUCTION USE THEREOF” (priority 2011, published 2014):
# What was measured:
# [1] = Dissolution of antibiotic in Wash NEXT reagent; format: physicochemical; settings: 1% in Wash NEXT base pool
# [2] = system: creatinine biosensor (creatinine amidohydrolase, creatinine amidinohydrolase and sarcosine oxidase); assay: Effect on enzymatic activity of a creatinine biosensor (rate of O2% decrease); format: biochemical; settings: 40 mM propionate, FIG. 2
# Description: In FIG. 1, the effects of various concentrations of gentamicin on the enzymatic activity of a creatinine biosensor (comprising the three enzymes creatinine amidohydrolase, creatinine amidinohydrolase and sarcosine oxidase) were determined. In FIG. 2, the effects of various concentrations of propionate on the enzymatic activity of a creatinine biosensor (comprising three enzymes) were determined.
# In both instances, a decreasing rate of O2% is an indicator of enzyme activity; the faster the rate of O2% decrease, the higher enzymatic activity is.
Structure (SMILES),dissolution in the Wash reagent [1],effect on enzymatic activity of the three enzymes in the creatinine biosensor [2]
CO[C@@H]1[C@@H](OC(N)=O)[C@@H](O)[C@H](Oc2ccc3c(O)c(NC(=O)c4ccc(O)c(CC=C(C)C)c4)c(=O)oc3c2C)OC1(C)C [novobiocin],neither antibiotic completely dissolved in the Wash reagent,–
CCC(=O)O [propionate],–,did not substantially affect the enzymatic activity
